Results: the supplement of paper PMC10307832

What was measured:
Test in all cases: relative viability (nuclei count vs DMSO), 5 days (fraction); higher = more cells survive
BEN = system: BEN
Outline: (§1)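 Lung cancer cell lines in 1536-well plates got either a single drug or a fixed anchor-drug dose together with five library-drug doses (not always all listed) in √10 steps, by pin tool, on the day after seeding. Nuclei were counted after 5 days, and relative viability is the treated-to-vehicle ratio of nuclei counts. Values are medians of duplicate plates.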

HOP-62 = system: HOP-62
Outline: as §1

LXF-289 = system: LXF-289
Outline: as §1

NCI-H650 = system: NCI-H650
Outline: as §1

HARA = system: HARA
Outline: as §1

LOU-NH91 = system: LOU-NH91
Outline: as §1

HCC-78 = system: HCC-78
Outline: as §1

SK-MES-1 = system: SK-MES-1
Outline: as §1

NCI-H1563 = system: NCI-H1563
Outline: as §1

COR-L 105 = system: COR-L 105
Outline: as §1

NCI-H2087 = system: NCI-H2087
Outline: as §1

H3255 = system: H3255
Outline: as §1

UMC-11 = system: UMC-11
Outline: as §1

NCI-H1395 = system: NCI-H1395
Outline: as §1

LC-2-ad = system: LC-2-ad
Outline: as §1

NCI-H1993 = system: NCI-H1993
Outline: as §1

LU99A = system: LU99A
Outline: as §1

SW 900 = system: SW 900
Outline: as §1

NCI-H2170 = system: NCI-H2170
Outline: as §1

201T = system: 201T
Outline: as §1

NCI-H2126 = system: NCI-H2126
Outline: as §1

RERF-LC-KJ = system: RERF-LC-KJ
Outline: as §1

EMC-BAC-2 = system: EMC-BAC-2
Outline: as §1

CCNC(=O)c1noc(-c2cc(C(C)C)c(O)cc2O)c1-c1ccc(CN2CCOCC2)cc1 [Luminespib] + N=C(N)NC(=N)NCCc1ccccc1 [Phenformin] (partner 250 µM)
relative viability (BEN; first compound 0.002 µM): 0.259
relative viability (BEN; first compound 0.006325 µM): 0.268
relative viability (BEN; first compound 0.02 µM): 0.273
relative viability (BEN; first compound 0.06325 µM): 0.216
relative viability (BEN; first compound 0.2 µM): 0.199
relative viability (HOP-62; first compound 0.002 µM): 0.674
relative viability (HOP-62; first compound 0.006325 µM): 0.721
relative viability (HOP-62; first compound 0.02 µM): 0.696
relative viability (HOP-62; first compound 0.06325 µM): 0.364
relative viability (HOP-62; first compound 0.2 µM): 0.165
relative viability (LXF-289; first compound 0.002 µM): 0.429
relative viability (LXF-289; first compound 0.006325 µM): 0.482
relative viability (LXF-289; first compound 0.02 µM): 0.593
relative viability (LXF-289; first compound 0.06325 µM): 0.163
relative viability (LXF-289; first compound 0.2 µM): 0.0721
relative viability (NCI-H650; first compound 0.002 µM): 0.437
relative viability (NCI-H650; first compound 0.006325 µM): 0.453
relative viability (NCI-H650; first compound 0.02 µM): 0.391
relative viability (NCI-H650; first compound 0.06325 µM): 0.213
relative viability (NCI-H650; first compound 0.2 µM): 0.121
relative viability (HARA; first compound 0.002 µM): 0.484
relative viability (HARA; first compound 0.006325 µM): 0.422
relative viability (HARA; first compound 0.02 µM): 0.485
relative viability (HARA; first compound 0.06325 µM): 0.245
relative viability (HARA; first compound 0.2 µM): 0.0594
relative viability (LOU-NH91; first compound 0.002 µM): 0.741
relative viability (LOU-NH91; first compound 0.006325 µM): 0.716
relative viability (LOU-NH91; first compound 0.02 µM): 0.525
relative viability (LOU-NH91; first compound 0.06325 µM): 0.287
relative viability (LOU-NH91; first compound 0.2 µM): 0.322
relative viability (HCC-78; first compound 0.002 µM): 0.689
relative viability (HCC-78; first compound 0.006325 µM): 0.52
relative viability (HCC-78; first compound 0.06325 µM): 0.767
relative viability (HCC-78; first compound 0.2 µM): 0.257
relative viability (SK-MES-1; first compound 0.002 µM): 0.642
relative viability (SK-MES-1; first compound 0.006325 µM): 0.623
relative viability (SK-MES-1; first compound 0.02 µM): 0.702
relative viability (SK-MES-1; first compound 0.06325 µM): 0.189
relative viability (SK-MES-1; first compound 0.2 µM): 0.193
relative viability (NCI-H1563; first compound 0.002 µM): 0.66
relative viability (NCI-H1563; first compound 0.006325 µM): 0.649
relative viability (NCI-H1563; first compound 0.02 µM): 0.597
relative viability (NCI-H1563; first compound 0.06325 µM): 0.455
relative viability (NCI-H1563; first compound 0.2 µM): 0.465
relative viability (COR-L 105; first compound 0.002 µM): 0.474
relative viability (COR-L 105; first compound 0.006325 µM): 0.402
relative viability (COR-L 105; first compound 0.02 µM): 0.337
relative viability (COR-L 105; first compound 0.06325 µM): 0.154
relative viability (COR-L 105; first compound 0.2 µM): 0.19
relative viability (NCI-H2087; first compound 0.002 µM): 0.493
relative viability (NCI-H2087; first compound 0.006325 µM): 0.362
relative viability (NCI-H2087; first compound 0.02 µM): 0.267
relative viability (NCI-H2087; first compound 0.06325 µM): 0.136
relative viability (NCI-H2087; first compound 0.2 µM): 0.115
relative viability (H3255; first compound 0.002 µM): 0.328
relative viability (H3255; first compound 0.006325 µM): 0.347
relative viability (H3255; first compound 0.06325 µM): 0.319
relative viability (H3255; first compound 0.2 µM): 0.187
relative viability (UMC-11; first compound 0.002 µM): 0.346
relative viability (UMC-11; first compound 0.006325 µM): 0.338
relative viability (UMC-11; first compound 0.02 µM): 0.291
relative viability (UMC-11; first compound 0.06325 µM): 0.213
relative viability (UMC-11; first compound 0.2 µM): 0.168
relative viability (NCI-H1395; first compound 0.002 µM): 0.448
relative viability (NCI-H1395; first compound 0.006325 µM): 0.401
relative viability (NCI-H1395; first compound 0.02 µM): 0.39
relative viability (NCI-H1395; first compound 0.06325 µM): 0.326
relative viability (NCI-H1395; first compound 0.2 µM): 0.335
relative viability (LC-2-ad; first compound 0.002 µM): 0.531
relative viability (LC-2-ad; first compound 0.006325 µM): 0.497
relative viability (LC-2-ad; first compound 0.02 µM): 0.551
relative viability (LC-2-ad; first compound 0.06325 µM): 0.25
relative viability (LC-2-ad; first compound 0.2 µM): 0.231
relative viability (NCI-H1993; first compound 0.002 µM): 0.46
relative viability (NCI-H1993; first compound 0.006325 µM): 0.474
relative viability (NCI-H1993; first compound 0.02 µM): 0.476
relative viability (NCI-H1993; first compound 0.06325 µM): 0.394
relative viability (NCI-H1993; first compound 0.2 µM): 0.36
relative viability (LU99A; first compound 0.002 µM): 0.818
relative viability (LU99A; first compound 0.006325 µM): 0.71
relative viability (LU99A; first compound 0.02 µM): 0.535
relative viability (LU99A; first compound 0.06325 µM): 0.167
relative viability (LU99A; first compound 0.2 µM): 0.125
relative viability (SW 900; first compound 0.002 µM): 0.625
relative viability (SW 900; first compound 0.006325 µM): 0.489
relative viability (SW 900; first compound 0.02 µM): 0.344
relative viability (SW 900; first compound 0.06325 µM): 0.0721
relative viability (SW 900; first compound 0.2 µM): 0.124
relative viability (NCI-H2170; first compound 0.002 µM): 0.405
relative viability (NCI-H2170; first compound 0.006325 µM): 0.398
relative viability (NCI-H2170; first compound 0.02 µM): 0.376
relative viability (NCI-H2170; first compound 0.06325 µM): 0.236
relative viability (NCI-H2170; first compound 0.2 µM): 0.158
relative viability (201T; first compound 0.002 µM): 0.396
relative viability (201T; first compound 0.006325 µM): 0.465
relative viability (201T; first compound 0.02 µM): 0.477
relative viability (201T; first compound 0.06325 µM): 0.373
relative viability (201T; first compound 0.2 µM): 0.24
relative viability (NCI-H2126; first compound 0.002 µM): 0.523
relative viability (NCI-H2126; first compound 0.006325 µM): 0.506
relative viability (NCI-H2126; first compound 0.02 µM): 0.497
relative viability (NCI-H2126; first compound 0.06325 µM): 0.279
relative viability (NCI-H2126; first compound 0.2 µM): 0.307
relative viability (RERF-LC-KJ; first compound 0.002 µM): 0.409
relative viability (RERF-LC-KJ; first compound 0.006325 µM): 0.418
relative viability (RERF-LC-KJ; first compound 0.02 µM): 0.512
relative viability (RERF-LC-KJ; first compound 0.06325 µM): 0.25
relative viability (RERF-LC-KJ; first compound 0.2 µM): 0.238
relative viability (EMC-BAC-2; first compound 0.002 µM): 0.529
relative viability (EMC-BAC-2; first compound 0.006325 µM): 0.48
relative viability (EMC-BAC-2; first compound 0.02 µM): 0.429
relative viability (EMC-BAC-2; first compound 0.06325 µM): 0.254
relative viability (EMC-BAC-2; first compound 0.2 µM): 0.175
